Measured values: patent US7011846B2, “Oral capsule formulation with increased physical stability” (Shire Laboratories, Inc., priority 2001, dated 2006)

Test: Capsule shell integrity with NMP alone or NMP:stabilizing agent 1:1 (wt/wt), banded capsules, observed for leakage and shell cracking
Type: physicochemical
Settings: NMP alone filled into size 0 hard gelatin capsule
Method: NMP was filled into a size 0 hard gelatin capsule in order to determine the effect of NMP on the integrity of the shell.
To stabilize the capsule shell in presence of solution of NMP, various capsule stabilizing agents were studied for their stability inducing properties. Stabilizing agents were each incorporated into NMP separately. Formulations were prepared by mixing or dissolving each excipient in a vial containing NMP with a 1:1 ratio (wt/wt). The solutions were then encapsulated into size 0 hard gelatin capsules and banded to prevent leakage of the fill contents. Capsules were stored at ambient environment and observations were made at regular time intervals for leakage and capsule shell cracking.

CN1CCCC1=O [#1, N-methyl-2-pyrrolidone]
Effect of NMP on the integrity of the capsule shell: Within minutes, the capsule cracked causing the content to leak out
